In patent EP3553061A1, “NEW INHIBITORS OF BONE RESORPTION” (CENTRE NATIONAL DE LA RECHERCHE SCIENTIFIQUE (CNRS), priority 2018, dated 2019) one finds Inhibition, inhibition and IC50 data, which are given here for 41 compounds.

Values joined by “and” are separate entries in the source; they are usually repeats but may differ in a detail not shown here. Identical values can stand only once. Like-named read-outs stand apart in the source and are kept apart here.

The target of the assay is T1, human Dock5 (Homo sapiens, UniProt Q9H7D0).
T1 construct: plasmid expressing the catalytic DHR2 domain of mouse or human Dock5; expressed in transfected cells; host or cells: 293T cells
Put plainly: Pull down assay of Rac activation by human Dock5 DHR2 in transfected 293T cells. The format is cell-based. The settings on record: for inhibition at 100 µM: read-out: Inhibition; for IC50: 1 hour treatment. Here is the method: Compounds E73, E88 and E78 were tested for their inhibiting effect of the activation of Rac by mouse Dock5 of and for certain human Dock5 according to a screening test using a pull down assay as represented in Figure 1.
Methodology (Figure 1): cells 293T seeded onto 100 mm diameter plates in a DMEM culture medium containing 10% serum in an incubator in 5.5% CO2 humidified atmosphere at 37°C. When they reach the density of 5x10^6 cells per plate, cells are transfected with 8 µg of plasmid expressing the catalytic DHR2 domain of mouse or human Dock5 in order to activate endogenous GTPase Rac. After 24 hours, the cells are lifted using trypsin and are seeded 10^6 per well in 6-well plates of 35 mms in diameter. The following day, the cells are put in contact during one hour with the compound, in a mother solution at 20 mM into 100% DMSO, to a test concentration of 100 µM into 0.5% DMSO in the DMEM medium containing 0.1% of BSA. The basal activation of Rac by Dock5 is measured from the cells treated with 0.5% DMSO. After treatment, the cells are observed under the optical microscope to make sure of the absence of any toxic effect of the compound. If cell suffering is detected, the test is invalidated and the compound is retested at a lower dosage. The cells are then lysed in 100 µl of the pull down buffer (10% glycerol, 50 mm Tris pH 7.4, 100 mM NaCl, 1% IGEPAL® CA-630 (SIGMA I3021), 2 mM MgCl2 supplemented with proteases inhibitors) and the lysate is incubated during one hour with 20 µg of sepharose beads coupled with the fusion protein GST-PAK-CRIB, which binds specifically the activated form of GTPase Rac, which is bound to GTP. After centrifugation and washings, the proteins associated with the beads, including active Rac GTPase, are denatured and loaded on an SDS PAGE gel. […] For each compound tested, the level of active Rac GTPase is quantified using the Image J software and is normalized to the concentration of total protein in the whole cell lysate. The efficiency of the molecule is defined by the level of active Rac after treatment compared to the level of active Rac in the cells treated with DMSO (control). An activity is considered as inhibitory if the level of Rac activation decreases by at least 10%, 20%, in particular at least 30%, 40%, and preferably at least 50% compared to the control treated with DMSO (Table 1).
The same approach was used to test the potency of molecules of the 48ED family, on the activity of human Dock5 DHR2 (Table 2). Table 2: Inhibitory activity of the compounds of the 48ED family on human Dock5 activity.

[1] abbreviates: Table 2, human Dock5 DHR2, test concentration 100 µM, 1 hour, replicate values, Negative = Rac activation does not decrease, 100 µM.
Setting [2] is: Table 2, human Dock5 DHR2, test concentration 100 µM, 1 hour, replicate values, Negative = Rac activation does not decrease.
Setting [3] is: HEK-293T, Table 2, human Dock5 DHR2, test concentration 100 µM, 1 hour, replicate values, Negative = Rac activation does not decrease.
Setting [4] is: HEK-293T, Table 3, human Dock5, test concentration 100 µM, 1 hour, replicate values.
The mark [5] stands for this setting: HEK-293T, Table 3, human Dock5, at 50µM.
Where [6] appears, read: Table 3, human Dock5, test concentration 100 µM, 1 hour, replicate values, 100 µM.

T1 sequence (Q9H7D0 1231-1642 limits assumed): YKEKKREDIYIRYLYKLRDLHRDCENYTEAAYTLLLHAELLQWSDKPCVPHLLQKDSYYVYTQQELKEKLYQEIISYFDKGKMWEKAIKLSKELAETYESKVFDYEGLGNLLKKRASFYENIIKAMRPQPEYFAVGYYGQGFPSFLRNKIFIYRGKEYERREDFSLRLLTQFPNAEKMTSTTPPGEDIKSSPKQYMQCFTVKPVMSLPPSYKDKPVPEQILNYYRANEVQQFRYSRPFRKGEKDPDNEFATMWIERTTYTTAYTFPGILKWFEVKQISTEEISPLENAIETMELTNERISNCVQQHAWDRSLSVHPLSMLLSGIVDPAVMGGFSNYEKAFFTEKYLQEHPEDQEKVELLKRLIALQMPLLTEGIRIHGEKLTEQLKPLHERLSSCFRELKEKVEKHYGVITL

Regarding `O=S1(=O)N(c2ccccc2)C[C@@H](O)[C@]12CCN(Cc1ccccc1F)C2` [E139], under setting [1], the Inhibition was 60% and 10%.
As to `CO[C@H]1CN(C)S(=O)(=O)[C@@]12CCN(Cc1ccccc1)C2` [E124], the Inhibition result under setting [2] is on record as “Negative”.
The same measure, in the same setting: the same measure for `CN1C[C@@H](O)[C@]2(CCN(Cc3ccccc3)C2)S1(=O)=O` [E121]: “Negative”.
As for `O=S1(=O)N(c2ccccc2)C[C@H](O)[C@]12CCN(Cc1ccc3ccccc3c1)C2` [E132], the inhibition – broadly, the drop in the measured response relative to a control, in per cent – at 10 µM (HEK-293T, Table 2, human Dock5 DHR2, at 10µM) was found to be 50%. Under setting [3], the inhibition at 100 µM stood at 70%. This compound returned an Inhibition (Table 2, human Dock5 DHR2, at 10µM) of 60%.
Take `CN(C)c1ccc(CN2CC[C@@]3(C2)[C@@H](O)CN(c2ccccc2)S3(=O)=O)cc1` [E213]: the inhibition at 100 µM under setting [4] was found to be 90%. The compound further had an Inhibition (Table 3, human Dock5, test concentration 100 µM, 1 hour, replicate values) of 90%/ 90%.
In turn, `Cn1cc(CN2CC[C@@]3(C2)[C@@H](O)CN(c2ccccc2)S3(=O)=O)c2ccccc21` (racemic) [E204, rac-(4S,5R)-4-hydroxy-7-((1-methyl-1H-indol-3-yl)methyl)-2-phenyl-1-thia-2,7-diazaspiro[4.4]nonane 1,1-dioxide] showed an inhibition at 50 µM under setting [5] of 60%. Besides, under setting [4], the inhibition at 100 µM is 100%. For the same compound, the Inhibition under setting [6] was determined as 95%. Moreover, the IC50 (commonly the concentration at which inhibition is half-maximal) (human Dock5) turned out to be 33 µM.
Take `COc1ccc(N2CCC3(CCN(Cc4cccc(Cl)c4)C3)C2=O)cc1OC` (stereo not shown) [E227]: the Inhibition under setting [6] was 90% and 50% and 60%.
`O=S1(=O)N(Cc2ccccc2)C[C@H](Oc2ccccn2)[C@]12CCN(Cc1ccccc1)C2` [E224]: the inhibition at 100 µM under setting [4] is 20%.
With `O=S1(=O)N(c2ccccc2)C[C@H](O)[C@]12CCN(C1CCCCCC1)C2` [E207], under setting [4], the inhibition at 100 µM is 20%.
Turning to `O=S1(=O)N(c2ccccc2)C[C@H](O)[C@]12CCN(Cc1ccc3[nH]ccc3c1)C2` [E212], the inhibition at 100 µM under setting [4] was 98%. Further, under setting [6], the Inhibition was 100%.
For `O=S1(=O)N(C2CCCCC2)C[C@H](O)[C@]12CCN(Cc1ccccc1)C2` [E233], in that order: 70% and 60%.
In the case of `O=S1(=O)N(c2ccccc2)C[C@H](O)[C@]12CCN(Cc1ccc3c(c1)OCO3)C2` [E206], the Inhibition under setting [6] was 50% and 100% and 70%.
For `O=S1(=O)N(c2ccccc2)C[C@H](OCCO)[C@]12CCN(Cc1ccccc1)C2` [E229], under setting [5], the inhibition at 50 µM turned out to be 65%.
For `CC(=O)N1CC[C@@]2(C1)[C@@H](O)CN(c1ccccc1)S2(=O)=O` [E133], under setting [3], the inhibition at 100 µM is 5%.
Under setting [5], `O=S1(=O)N(c2ccccc2)C[C@H](O)[C@]12CCN(Cc1ccccc1Cl)C2` (racemic) [E196, rac-(4S,5R)-7-(2-chlorobenzyl)-4-hydroxy-2-phenyl-1-thia-2,7-diazaspiro[4.4]nonane 1,1-dioxide] came in with an inhibition at 50 µM of 40%. For the same compound, the Inhibition under setting [6] was 95% (2×) and 35%. The same compound gave an IC50 (human Dock5) of 35 µM.
For the setting “HEK-293T, Table 2, human Dock5 DHR2, at 50µM”, `O=S1(=O)N(c2ccccc2)C[C@H](O)[C@]12CCN(Cc1cccc(C(F)(F)F)c1)C2` [E128] registered an inhibition at 50 µM of 70%. Besides, under setting [3], the inhibition at 100 µM stood at 90%.
For the compound `O=C(c1ccccc1)N1CC[C@@]2(C1)[C@@H](O)CN(c1ccccc1)S2(=O)=O` [E137], the Inhibition under setting [1] was 70% and 40% and 15%.
Turning to `N#Cc1cccc(CN2CC[C@@]3(C2)[C@@H](O)CN(c2ccccc2)S3(=O)=O)c1` [E214], the Inhibition under setting [6] was 90% and 50%.
`O=S1(=O)N(c2ccccc2)C[C@H](O)[C@]12CCN(Cc1cnc3ccccc3c1)C2` (racemic) [E203, rac-(4S,5R)-4-hydroxy-2-phenyl-7-(quinolin-3-ylmethyl)-1-thia-2,7-diazaspiro[4.4]nonane 1,1-dioxide] had an inhibition at 50 µM under setting [5] of 95%. The Inhibition (Table 3, human Dock5, at 50µM) came to 90%. Besides, half-maximal inhibition (human Dock5) (IC50) required 22 µM.
In turn, `COc1ccc(CN2CC[C@@]3(C2)[C@@H](O)CN(c2ccccc2)S3(=O)=O)cc1F` (racemic) [E211, rac-(4S,5R)-7-(3-fluoro-4-methoxybenzyl)-4-hydroxy-2-phenyl-1-thia-2,7-diazaspiro[4.4]nonane 1,1-dioxide] gave an inhibition at 50 µM under setting [5] of 90%. Moreover, half-maximal inhibition (human Dock5) (IC50) was put at 44 µM.
`O=S1(=O)N(c2ccccc2)C[C@H](O)[C@]12CCN(Cc1ccccc1)C2` [E118]: under setting [1], the Inhibition is 85% (2×) and 60% and 55%.
Regarding `COc1cc(CN2CC[C@@]3(C2)[C@@H](O)CN(c2ccccc2)S3(=O)=O)cc(OC)c1` [E209], the inhibition at 100 µM under setting [4] worked out at 35%.
Regarding `O=S1(=O)N(c2ccccc2)C[C@@H](O)[C@]12CCN(Cc1ccccc1)C2` [E119], the inhibition at 100 µM under setting [3] amounted to 25%.
Under setting [5], `CCOC(=O)CO[C@H]1CN(c2ccccc2)S(=O)(=O)[C@@]12CCN(Cc1ccccc1)C2` [E231] gave an inhibition at 50 µM of 70%.
In the case of `CNC(=O)CO[C@H]1CN(c2ccccc2)S(=O)(=O)[C@@]12CCN(Cc1ccccc1)C2` [E230], the Inhibition under setting [6] was 80% and 45% and 30% and 70%.
Consider `CN1C[C@H](Oc2ccccn2)[C@]2(CCN(Cc3ccccc3)C2)S1(=O)=O` [E126], for which the inhibition at 100 µM under setting [3] worked out at 10%.
Turning to `Cn1cc(CN2CC[C@@]3(C2)[C@@H](O)CN(c2ccccc2)S3(=O)=O)cn1` [E201], the Inhibition under setting [6] was 60% and 10% (2×).
For `O=S1(=O)N(c2ccccc2)C[C@H](O)[C@]12CCN(Cc1ccc(F)cc1)C2` [E127], under setting [1], the Inhibition is 40% and 50% and 85% and 90%.
For `COc1ccc(N2CCC3(CCN(Cc4cccc(Cl)c4)C3)C2=O)cc1C` (stereo not shown) [E228, 7-(3-chlorobenzyl)-2-(4-methoxy-3-methylphenyl)-2,7-diazaspiro[4.4]nonan-1-one], at 50 µM the inhibition under setting [5] was 65%. In addition, the IC50 (human Dock5) worked out at 8 µM.
Consider `O=C(CC1CCCC1)N1CC[C@@]2(C1)[C@@H](O)CN(c1ccccc1)S2(=O)=O` [E135], for which the Inhibition under setting [1] is 70% and 50% and 95%.
With `CN1C[C@H](O)[C@]2(CCN(Cc3ccccc3)C2)S1(=O)=O` [E120], the Inhibition result under setting [2] was “Negative”.
As to `COC(=O)c1ccc(CN2CC[C@@]3(C2)[C@H](O)CN(c2ccccc2)S3(=O)=O)cc1` [E140], under setting [3], the inhibition at 100 µM stood at 50%.
Regarding `Cc1cc(C(=O)N2CC[C@@]3(C2)[C@@H](O)CN(c2ccccc2)S3(=O)=O)no1` [E136], under setting [3], the inhibition at 100 µM was 30%.
As for `O=S1(=O)N(c2cccc(Cl)c2)C[C@@H](O)[C@]12CCN(Cc1ccccc1)C2` [E236], under setting [5], at 50 µM the inhibition was 20%. Moreover, the inhibition at 100 µM under setting [4] turned out to be 70%.
For the compound `O=S1(=O)N(c2ccccc2)C[C@H](O)[C@]12CCNC2` [E123], under setting [3], the inhibition at 100 µM turned out to be 10%.
Turning to `O=S1(=O)N(c2ccccc2)C[C@H](O)[C@]12CCN(CC1CCCCC1)C2` [E198], the Inhibition under setting [6] was 95% and 10% and 85%.
Consider `O=S1(=O)N(c2cccc(Cl)c2)C[C@H](O)[C@]12CCN(Cc1ccccc1)C2` [E235], for which the inhibition at 100 µM under setting [4] amounted to 80%. The compound further displayed an Inhibition under setting [6] of 85%.
For `O=S1(=O)N(c2ccccc2)C[C@H](O)[C@]12CCN(Cc1cc3ccccc3o1)C2` (racemic) [E205, rac-(4S,5R)-7-(benzofuran-2-ylmethyl)-4-hydroxy-2-phenyl-1-thia-2,7-diazaspiro[4.4]nonane 1,1-dioxide], the inhibition at 50 µM under setting [5] was 70%. Further, the inhibition at 100 µM under setting [4] amounted to 100%. The same compound had an IC50 (human Dock5) of 43 µM.
In the case of `O=C(O)CO[C@H]1CN(c2ccccc2)S(=O)(=O)[C@@]12CCN(Cc1ccccc1)C2` [E232], the Inhibition under setting [6] was 40% (2×) and 10%.
`O=S1(=O)N(c2ccccc2)C[C@H](O)[C@]12CCN(Cc1ccc3c(c1)CCC3)C2` (racemic) [E210, rac-(4S,5R)-7-((2,3-dihydro-1H-inden-5-yl)methyl)-4-hydroxy-2-phenyl-1-thia-2,7-diazaspiro[4.4]nonane 1,1-dioxide] showed an inhibition at 50 µM under setting [5] of 85%. Further, the midpoint of inhibition (human Dock5), the IC50, lay at 32 µM.
Turning to `CO[C@@H]1CN(C)S(=O)(=O)[C@@]12CCN(Cc1ccccc1)C2` [E125], the Inhibition result under setting [2] is “Negative”.
